The record followed here is patent US20100144722A1, “NOVEL HETEROCYCLIC COMPOUNDS AS GATA MODULATORS” (Dr. Reddy's Laboratories Ltd., priority 2008, published 2010).

The subject of the test is GATA1. Nature of the test: GATA Assay (GATA luciferase reporter in transfected HepG2 cells). In kind it is cell-based, Human. Conditions: HepG2 cells transfected with GATA Translucent Reporter Vector, luciferase normalized to total protein. Here is the method:
Human HepG2 (ATCC) cells were grown in Eagle's Minimum Essential Media (MEM) containing 10% heat inactivated Fetal Bovine Serum (FBS) (Invitrogen) and 5 mL Penicillin-Streptomycin (Invitrogen) in T75 flasks (Corning) in a 37° C./5% CO2 tissue culture incubator (Thermo Electron Corporation) prior to the study. 96-well plates (Corning) were seeded in MEM containing 10% FBS to yield ˜50% confluency. The following day, cells were transfected using FuGENE 6 transfection reagent (Roche) and […] GATA Translucent Reporter Vector (Panomics) according the manufacturer's (Roche) protocol and incubated for about 10-19 h. The next day, the cells were treated with equal volumes of vehicle, dimethyl sulfoxide (DMSO) (Hybri-Max Sterile Filtered Sigma Aldrich) or compounds of formula (I) (in DMSO) diluted in MEM containing 1% FBS. The treated cells were incubated about 8-19 h. The next day the treatment media was removed and the cells were lysed and assayed for luciferase activity using the luciferase assay system (Promega) and using the Envision plate reader (Perkin Elmer). The lysates were also used to measure total protein content with the MicroBCA protein assay kit (Pierce) using the Multiskan Ascent plate reader at 570 nm. Luciferase values were normalized to total protein and fold induction was calculated.
Compounds that show an increase of ≧40% in luciferase levels at ≦20 μm concentration were considered as GATA activators.

Take `Cc1noc(C)c1-c1cc(N2CCOCC2)nc(Nc2ccc(C3(C(=O)O)CCC3)cc2)n1` [Example 30, 1-{4-[4-(3,5-dimethyl-isoxazol-4-yl)-6-morpholin-4-yl-pyrimidin-2-ylamino]-phenyl}-cyclobutanecarboxylic acid]: the “GATA1 Activation (Fold Change Vs Control)” value reads like this: (5μ compound) 1.64 Fold; (10μ compound) 1.74 Fold.
As to `CC(C)Oc1cc(-c2ccccc2)nc(Nc2ccc(C3(C(=O)O)CCC3)cc2)n1` [Example 68, 1-[4-(4-isopropoxy-6-phenyl-pyrimidin-2-ylamino)-phenyl]-cyclobutane-carboxylic acid], the “GATA1 Activation (Fold Change Vs Control)” value was 2.57 Fold (5μ compound) and 2.44 Fold (10μ compound).
In the same order, the values of `O=C(O)C1(c2ccc(Nc3nc(NC4CCCC4)cc(-c4ccccc4)n3)cc2)CCC1` [Example 16, 1-[4-(4-cyclopentylamino-6-phenyl-pyrimidin-2-ylamino)-phenyl]-cyclobutane-carboxylic acid] are 2.44 Fold and 2.13 Fold.
In the same order, the values of `CC(C)(C)Nc1nc(Nc2ccc(C3(C(=O)O)CCC3)cc2)cc(-c2ccccc2)n1` [Example 55, 1-[4-(2-tert-butylamino-6-phenyl-pyrimidin-4-ylamino)-phenyl]-cyclobutane-carboxylic acid] are 2.86 Fold and 2.40 Fold.
In the same order, the values of `O=C(O)C1(c2ccc(Nc3nc(NC4CCCC4)cc(C4CCCC4)n3)cc2)CCC1` [Example 25, 1-[4-(4-cyclopentyl-6-cyclopentylamino-pyrimidin-2-ylamino)-phenyl]-cyclobutanecarboxylic acid] are 3.69 Fold and 3.32 Fold.
